The text below walks through data of ChEMBL document CHEMBL1130993, “1,2-disubstituted cyclohexane derived tripeptide aldehydes as novel selective thrombin inhibitors” (Bioorg Med Chem Lett, 1998).

Each structure is given as a SMILES string. Bounds are passed on as bounds.

Experiment [1] addresses T1, Prothrombin (Homo sapiens, UniProt P00734). Kind of experiment: Compound was evaluated for percent inhibition of thrombin using the synthetic substrate chromozym TH at 100 uM.
Experiment [2] can be described thus: Compound was evaluated for IC50 ratio between human plasmin and thrombin.
The target in experiment [3] is T1, Prothrombin. Kind of experiment: Compound was evaluated for the inhibition of thrombin using the synthetic substrate chromozym TH.
Experiment [4] is described as follows: Compound was evaluated for IC50 ratio between human t-PA and thrombin.

`CN(CCc1ccccc1)C(=O)[C@H]1CCCC[C@@H]1C(=O)N[C@@H](C=O)CCCN=C(N)N`: the inhibition on Prothrombin [1] came to 15%.

Regarding `CN[C@H](Cc1ccccc1)C(=O)N1CCC[C@H]1C(=O)N[C@H](C=O)CCCNC(=N)N`, the Selectivity in experiment [2] worked out at 413.

`CNC(Cc1ccccc1)C(=O)N[C@H]1CCCC[C@H]1C(=O)N[C@@H](C=O)CCCN=C(N)N` (stereo partly drawn) yielded an inhibition on Prothrombin [1] of 6%.

Consider `CN[C@H](Cc1ccccc1)C(=O)N1CCC[C@H]1C(=O)N[C@H](C=O)CCCN=C(N)N` [EFEGATRAN], for which, on Prothrombin [3], the midpoint of inhibition, the IC50, lay at 0.046 µM.

On Prothrombin [1], `CN(CCc1ccccc1)C(=O)[C@@H]1CCCC[C@@H]1C(=O)N[C@@H](C=O)CCCN=C(N)N` came in with an inhibition of 100%. Also, the Selectivity in experiment [2] was 67; in experiment [4], 308. Moreover, the IC50 against Prothrombin [3] was 12 µM.

`CN(CCc1ccccc1)C(=O)C1CCCCC1C(=O)N[C@@H](C=O)CCCN=C(N)N` (stereo partly drawn) returned an inhibition against Prothrombin [1] of 100%. Also, on Prothrombin [3], the midpoint of inhibition, the IC50, lay at 84 µM.

On to `CNC(Cc1ccc2ccccc2c1)C(=O)N[C@H]1CCCC[C@H]1C(=O)N[C@@H](C=O)CCCN=C(N)N` (stereo partly drawn), for which the Selectivity in experiment [2] was 4540; in experiment [4], > 5000. Also, the half-inhibitory concentration (IC50) against Prothrombin [3] is 0.022 µM.

On Prothrombin [1], `CN(Cc1ccccc1)C(=O)C1CCCCC1C(=O)N[C@@H](C=O)CCCN=C(N)N` (stereo partly drawn) registered an inhibition of 36%.

In the case of `CN(CCc1ccccc1)C(=O)[C@@H]1CCCC[C@H]1C(=O)N[C@@H](C=O)CCCN=C(N)N`, at Prothrombin [1], the inhibition came to 14%.

`CN(Cc1ccccc1)C(=O)[C@@H]1CCCC[C@H]1C(=O)N[C@@H](C=O)CCCN=C(N)N` had an inhibition at Prothrombin [1] of 8%.

Compound `CNC(Cc1ccccc1)C(=O)N[C@H]1CCCC[C@@H]1C(=O)N[C@@H](C=O)CCCN=C(N)N` (stereo partly drawn) gave an inhibition against Prothrombin [1] of 39%.

For `CNC(Cc1ccccc1)C(=O)N[C@@H]1CCCC[C@@H]1C(=O)N[C@@H](C=O)CCCN=C(N)N` (stereo partly drawn), the inhibition against Prothrombin [1] was 1%.

As to `CNC(Cc1ccccc1)C(=O)N[C@@H]1CCCC[C@H]1C(=O)N[C@@H](C=O)CCCN=C(N)N` (stereo partly drawn), on Prothrombin [1], the inhibition amounted to 100%. Further, the Selectivity stood at 38 in experiment [2] and 1000 in experiment [4]. The compound also displayed a concentration for half-maximal inhibition (IC50) against Prothrombin [3] of 4 µM.

In turn, `CN(Cc1ccccc1)C(=O)[C@H]1CCCC[C@@H]1C(=O)N[C@@H](C=O)CCCN=C(N)N` yielded an inhibition on Prothrombin [1] of 27%.

In general, inhibition refers to how much of the control response was suppressed. Usually IC50 stands for the midpoint of a concentration-inhibition curve. Higher therefore signals weaker potency.
